Results on two compounds are retold here after patent publication US20230265151A1, “GIP/GLP1 CO-AGONIST COMPOUNDS” (priority 2020, published 2023).

Like-named read-outs stand apart in the source and are kept apart here. *1 amine or outer side, *2 acyl side, *3 side chain or, on linkers, in order; H or OH if unused. Where a SMILES comes first, the peptide text is derived from it. Side-chain parts run from the residue outwards. [ ]: non-standard residue; d: D form. The star is where a group is joined. αMePhe(2-F) = C[C@](N)(Cc1ccccc1F)C(=O)O; γGlu = O=C(O)[C@H](CCC(=O)[*:2])N[*:1]; C14 diacid = O=C(O)CCCCCCCCCCCCC(=O)*; αMeY = C[C@](N)(Cc1ccc(O)cc1)C(=O)O; 4Pal = N[C@@H](Cc1ccncc1)C(=O)O; αMeL = CC(C)C[C@](C)(N)C(=O)O; Orn = NCCC[C@H](N)C(=O)O; AEEA = NCCOCCOCC(=O)O; Aib = CC(C)(N)C(=O)O

Assay [1] has as its target T1, hGCGR (Homo sapiens, UniProt P47871).
T1 construct: expressed in transfected cells
Nature of the assay: Functional cAMP formation (HTRF) in HEK-293 clonal cells expressing hGCGR, 0.1% bovine casein, without or with 1.0% human serum albumin. In kind it is cell-based. The conditions noted are these: read-out: hGCGR EC50, nM (SEM, n). In a few lines: (§1)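 Readings of the HTRF 665/620 nm ratio, which falls as cAMP rises, were converted to nM cAMP using a standard curve after 30 min peptide exposure at 37° C.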
A general note: Cyclic AMP is a second messenger, typically raised through Gs and lowered through Gi signalling.

Assay [2] addresses T2, human GLP-1 receptor (hGLP-1R) (Homo sapiens, UniProt P43220).
T2 construct: expressed in transfected cells; crude membranes
Nature of the assay: [125I]-GLP-1 binding, SPA with membranes of HEK293 cells expressing hGLP-1R. The conditions noted are these: human GLP-1R; geometric mean (SEM, n); read-out: Binding Affinity Ki, nM (SEM, n) hGLP-1R. The procedure:
Two methods are used for the preparation of crude cell membranes.
Method 1: Frozen cell pellets are lysed on ice in hypotonic buffer containing 50 mM Tris HCl, pH 7.5, and Roche Complete™ Protease Inhibitors with EDTA. […] The homogenate is centrifuged at 4° C. at 1100 × g for 10 minutes. The supernatant is collected and stored on ice while the pellets are resuspended in homogenization buffer and rehomogenized as described above. The homogenate is centrifuged at 1100 × g for 10 minutes. The second supernatant is combined with the first supernatant and centrifuged at 35000 × g for 1 hour at 4° C. The resulting membrane pellet is resuspended in homogenization buffer containing protease inhibitors at approximately 1 to 3 mg/mL, quick frozen in liquid nitrogen and stored as aliquots in a -80° C. freezer until use.
The homogenate is centrifuged at 4° C. at 1800 × g for 15 minutes. The supernatant is collected and stored on ice while the pellets are resuspended in homogenization buffer (without DNAse I) and rehomogenized as described above. The homogenate is centrifuged at 1800 × g for 15 minutes. The second supernatant is combined with the first supernatant and centrifuged an additional time at 1800 × g for 15 minutes. The overall supernatant is then centrifuged at 25000 × g for 30 minutes at 4° C. The resulting membrane pellet is resuspended in homogenization buffer (without DNAse I) containing protease inhibitors at approximately 1 to 3 mg/mL and stored as aliquots in a -80° C. freezer until use.
The human GLP-1 receptor binding assay is performed using an SPA format with WGA beads. The binding buffer contains 25 mM HEPES, pH 7.4, 2.5 mM CaCl2, 1 mM MgCl2, 0.1% (w/v) bacitracin, 0.003% (w/v) TWEEN®-20, and Roche Complete™ Protease Inhibitors without EDTA.
Raw CPM data for concentration curves of peptides, Gcg, GLP-1, or GIP are converted to percent inhibition by subtracting nonspecific binding (binding in the presence of excess unlabeled Gcg, GLP-1, or GIP, respectively) from the individual CPM values and dividing by the total binding signal, also corrected by subtracting nonspecific binding. Data are analyzed using four-parameter (curve maximum, curve minimum, IC50, Hill slope) nonlinear regression routines (Genedata Screener, version 12.0.4, Genedata AG, Basal, Switzerland). […] Values for Ki are reported as the geometric mean, with error expressed as the standard error of the mean (SEM) and n is equal to the number of independent replicates (determined in assays performed on different days). Geometric Means are calculated as follows: […]
The Ki Ratio (Ki for native control peptide/Ki for test compound) at each receptor and each species is calculated. The Ki Ratio is a rapid indication of the apparent affinity of a peptide compared to the native control peptide.
n=⅟x means that only one value out of the total number of replicates (x) is used to express the mean. SEM is only calculated when n=2 or greater non-qualified results exist. Means are expressed as GeoMetric means with the standard error of the mean (SEM) and the number of replicates (n) indicated in parenthesis.

Assay [3] concerns the target T3, hGIPR (Homo sapiens, UniProt P48546).
T3 construct: expressed in transfected cells
T3 sequence (P48546 22-466): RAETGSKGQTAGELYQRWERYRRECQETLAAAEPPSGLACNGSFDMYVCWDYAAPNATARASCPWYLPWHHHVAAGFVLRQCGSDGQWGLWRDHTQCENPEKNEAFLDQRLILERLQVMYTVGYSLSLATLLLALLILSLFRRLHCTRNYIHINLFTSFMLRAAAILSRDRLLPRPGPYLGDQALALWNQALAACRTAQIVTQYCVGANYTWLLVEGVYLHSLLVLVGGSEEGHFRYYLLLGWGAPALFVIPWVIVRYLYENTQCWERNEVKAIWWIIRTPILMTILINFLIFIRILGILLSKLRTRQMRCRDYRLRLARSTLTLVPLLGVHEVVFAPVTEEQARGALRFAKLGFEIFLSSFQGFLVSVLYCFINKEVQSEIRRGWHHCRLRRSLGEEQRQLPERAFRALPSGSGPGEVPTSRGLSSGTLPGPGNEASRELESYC
Nature of the assay: Functional cAMP formation (HTRF) in HEK-293 clonal cells expressing hGIPR, 0.1% bovine casein, without or with 1.0% human serum albumin. In kind it is cell-based. The conditions noted are these: 37° C.; for Emax: read-out: hGIPR Emax, % ± SEM; for EC50: read-out: hGIPR EC50, nM (SEM, n). Summed up:
as §1

Assay [4] addresses hGLP-1R (Homo sapiens, UniProt P43220). Nature of the assay: Functional cAMP formation (HTRF) in HEK-293 clonal cells expressing hGLP-1R, 0.1% bovine casein, without or with 1.0% human serum albumin. In kind it is cell-based. Also noted: expressed in transfected cells. The conditions noted are these: 37° C.; for Emax: HEK293, cAMP, percent of maximal response to GLP-1(7-36)NH2, read-out: hGLP-1R Emax, % ± SEM; for EC50: geometric mean, read-out: hGLP-1R EC50, nM (SEM, n). In a few lines: as §1

[5] abbreviates: 0.1% bovine casein and 1.0% human serum albumin.

T1 sequence (P47871 26-477): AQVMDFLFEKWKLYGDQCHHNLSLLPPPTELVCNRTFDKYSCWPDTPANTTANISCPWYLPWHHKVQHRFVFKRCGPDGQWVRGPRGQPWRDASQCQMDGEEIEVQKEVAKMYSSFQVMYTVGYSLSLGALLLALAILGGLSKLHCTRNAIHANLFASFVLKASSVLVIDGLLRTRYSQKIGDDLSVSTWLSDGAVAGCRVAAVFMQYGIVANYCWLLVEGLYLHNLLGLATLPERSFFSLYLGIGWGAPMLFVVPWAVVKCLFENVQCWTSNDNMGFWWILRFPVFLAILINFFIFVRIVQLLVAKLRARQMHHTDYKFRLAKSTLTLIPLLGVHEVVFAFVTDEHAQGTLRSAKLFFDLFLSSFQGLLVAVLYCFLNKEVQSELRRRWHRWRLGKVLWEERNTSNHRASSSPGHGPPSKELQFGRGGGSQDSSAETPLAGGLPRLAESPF
hGLP-1R, sequence (P43220 24-463): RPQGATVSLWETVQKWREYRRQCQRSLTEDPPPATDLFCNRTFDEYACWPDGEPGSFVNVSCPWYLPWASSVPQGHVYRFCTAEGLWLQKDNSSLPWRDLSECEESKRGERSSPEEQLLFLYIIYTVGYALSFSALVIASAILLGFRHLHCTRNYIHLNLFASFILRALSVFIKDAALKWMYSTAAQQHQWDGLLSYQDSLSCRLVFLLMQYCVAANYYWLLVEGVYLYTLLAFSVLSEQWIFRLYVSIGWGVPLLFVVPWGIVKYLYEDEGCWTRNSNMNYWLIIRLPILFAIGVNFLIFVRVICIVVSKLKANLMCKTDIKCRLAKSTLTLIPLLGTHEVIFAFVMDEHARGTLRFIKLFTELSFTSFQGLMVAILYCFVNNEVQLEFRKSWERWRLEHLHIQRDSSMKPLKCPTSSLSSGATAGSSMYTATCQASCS
T2 sequence (P43220 24-463): as above

Usually EC50 stands for the concentration needed to bring the measured effect to its halfway point. As a reminder, the Ki is a measure of affinity in units of concentration, obtained from inhibition or displacement. As usually defined, the Emax is the size of the effect at its maximum, as opposed to the concentration needed. With `CC[C@H](C)[C@H](NC(=O)[C@H](CC(C)C)NC(=O)[C@](C)(Cc1ccc(O)cc1)NC(=O)[C@H](CCCCNC(=O)COCCOCCNC(=O)COCCOCCNC(=O)CC[C@H](NC(=O)CCCCCCCCCCCCC(=O)O)C(=O)O)NC(=O)[C@@H](NC(=O)[C@H](Cc1ccccc1)NC(=O)[C@H](CCCN)NC(=O)C(C)(C)NC(=O)[C@H](CCC(N)=O)NC(=O)[C@H](C)NC(=O)[C@H](CCC(N)=O)NC(=O)[C@H](CCCN)NC(=O)[C@H](CC(=O)O)NC(=O)[C@H](CC(C)C)NC(=O)[C@](C)(CC(C)C)NC(=O)CNC(=O)C(C)(C)NC(=O)[C@H](Cc1ccncc1)NC(=O)[C@H](CC(=O)O)NC(=O)[C@H](CO)NC(=O)[C@@H](NC(=O)[C@](C)(Cc1ccccc1F)NC(=O)[C@@H](NC(=O)CNC(=O)[C@H](CCC(=O)O)NC(=O)C(C)(C)NC(=O)[C@@H](N)Cc1ccc(O)cc1)[C@@H](C)O)[C@@H](C)O)[C@@H](C)CC)C(=O)N[C@@H](CCCCNC(=O)COCCOCCNC(=O)COCCOCCNC(=O)CC[C@H](NC(=O)CCCCCCCCCCCCC(=O)O)C(=O)O)C(=O)NCC(=O)NCC(=O)N1CCC[C@H]1C(=O)N[C@@H](CO)C(=O)N[C@@H](CO)C(=O)NCC(=O)N[C@@H](C)C(=O)N1CCC[C@H]1C(=O)N1CCC[C@H]1C(=O)N1CCC[C@H]1C(=O)N[C@@H](CO)C(N)=O` [Example 441] (H-Y[Aib]EGT[αMePhe(2-F)]TSD[4Pal][Aib]G[αMeL]LD[Orn]QAQ[Aib][Orn]FIK([AEEA-AEEA-γGlu-C14 diacid])[αMeY]LIK([AEEA-AEEA-γGlu-C14 diacid])GGPSSGAPPPS-NH2), the concentration for a half-maximal effect (EC50) was greater than 9950 nM in assay [1] (cAMP, 37° C., 0.1% bovine casein (no human serum albumin), geometric mean); greater than 9950 nM in assay [1] (cAMP, 37° C., 0.1% bovine casein and 1.0% human serum albumin, geometric mean (SEM, n)); 0.0174 nM in assay [3] (cAMP, 0.1% bovine casein (no human serum albumin), geometric mean); 1.38 nM in assay [3] (cAMP, 0.1% bovine casein and 1.0% human serum albumin, geometric mean (SEM, n)); 0.134 nM in assay [4] (cAMP, 0.1% bovine casein (no human serum albumin)). Besides, in assay [2], the Ki worked out at 0.386 nM. Further, the maximal effect (Emax) is 83.8% in assay [3] (HEK293, cAMP, 0.1% bovine casein and 1.0% human serum albumin, percent of maximal response to GIP(1-42)NH2); 97.2% in assay [3] (HEK293, cAMP, 0.1% bovine casein, percent of maximal response to GIP(1-42)NH2, arithmetic mean); 111% in assay [4] (setting [5]); 110% in assay [4] (0.1% bovine casein, arithmetic mean).
For the compound `CCCCCCCCCCCC(=O)N[C@@H](CCC(=O)NCCOCCOCC(=O)NCCCC[C@H](NC(=O)CNC(=O)CNC(=O)[C@H](CCC(=O)O)NC(=O)[C@@H](NC(=O)[C@H](CC(C)C)NC(=O)[C@](C)(Cc1ccc(O)cc1)NC(=O)[C@@H](CCC(=O)O)NC(=O)[C@@H](NC(=O)[C@H](Cc1ccccc1)NC(=O)[C@H](CCC(=O)O)NC(=O)C(C)(C)NC(=O)[C@H](CCC(N)=O)NC(=O)[C@H](C)NC(=O)[C@H](CCCCNC(=O)COCCOCCNC(=O)CC[C@H](NC(=O)CCCCCCCCCCC)C(=O)O)NC(=O)[C@H](CCCN)NC(=O)[C@H](CC(=O)O)NC(=O)[C@H](CC(C)C)NC(=O)[C@](C)(CC(C)C)NC(=O)[C@@H](NC(=O)[C@H](CO)NC(=O)[C@H](Cc1ccncc1)NC(=O)[C@H](CC(=O)O)NC(=O)[C@H](CO)NC(=O)[C@@H](NC(=O)[C@](C)(Cc1ccccc1F)NC(=O)[C@@H](NC(=O)CNC(=O)[C@H](CCC(=O)O)NC(=O)C(C)(C)NC(=O)[C@@H](N)Cc1ccc(O)cc1)[C@@H](C)O)[C@@H](C)O)[C@@H](C)CC)[C@@H](C)CC)[C@@H](C)CC)C(=O)N[C@@H](CO)C(=O)N[C@@H](CO)C(=O)NCC(=O)N[C@@H](C)C(=O)N1CCC[C@H]1C(=O)N1CCC[C@H]1C(=O)N1CCC[C@H]1C(=O)N[C@@H](CO)C(N)=O)C(=O)O` [Example 14], the EC50 was greater than 9950 nM in assay [1] (0.1% bovine casein and 1.0% human serum albumin, 37° C., geometric mean); greater than 9950 nM in assay [1] (cAMP, incubated at 37° C., 0.1% bovine casein (no human serum albumin), geometric mean); 0.769 nM in assay [3] (0.1% bovine casein and 1.0% human serum albumin, geometric mean); 9.19 nM in assay [4] (setting [5]). In assay [2], the Ki stood at 0.286 nM. Further, the maximum response (Emax) in assay [3] (HEK293, 0.1% bovine casein and 1.0% human serum albumin, percent of maximal response to GIP(1-42)NH2) was found to be 89.5 ± 1.02%; in assay [3] (HEK293, percent of maximal response to GIP(1-42)NH2, 0.1% bovine casein, arithmetic mean) it was 95 ± 2.32%.
